Measurements published in patent US20120003339A1, “COMPOSITIONS AND METHODS FOR CONTROLLING BLOOD GLUCOSE LEVELS” (priority 2010, published 2012).

How the values were obtained:
Format in all cases: in vivo, human
[1] = Example II: morning (fasting) and two-hour after eating blood glucose readings, A1c and side effects in a subject with type 2 diabetes; conditions: 500 mg once a day
Procedure: A subject had been diagnosed with type 2 diabetes. Their fasting glucose reading was 11.6 mmol/L and A1c was 8.9%. Due to arthritis in their knee, exercise was not an option. […] They were prescribed 500 mg of Ratio-Metformin once a day. […] According to the endocrinologist, the subject's morning readings (fasting blood glucose levels) were in the range from 8.1 to 10.8 mmol/L, and their two-hour after eating readings were 10 to 13.8 mmol/L.
Due to the adverse side effects of Metformin, the subject decided to stop taking the prescribed daily Metformin and replace it with the composition and method of the present invention. […]
The first cycle was about three months in length. […] Within a week that the subject was treated with the method of the invention, their morning readings were in the 4 to 6.5 mmol/L range and their two hours after eating range were well below 9 mmol/L. It should be noted that, for three weeks during this period, the patient was on vacation in France, enjoying fine French food and wine. A month after finishing the first cycle, the subject took a second fasting sugar test and a A1c test, the readings were 6.6 mmol/L and 6%, respectively.
The subject was treated with three cycles of the composition and method of the present invention. […] Their morning readings were in the range of 4.3 to 6.5 mmol/L, and their two hour after eating readings were in the range of 6 to 8.5 mmol/L. […]

[2] = Example III: blood glucose levels in a morbidly obese subject with type 2 diabetes; conditions: person, 380 lb, on traditional medication
Procedure: A subject weighed 380 lb was diagnosed with type 2 diabetes and was considered morbidly obese. The subject was prescribed Metformin. With traditional medication their blood glucose levels were at about 19 mmol/L, well above the normal range. Although the subject was considered for gastric bypass surgery, their medical doctors would not operate because their blood glucose could not be controlled.
The subject started taking 25 mg each of Gudmar, Kalijiri, Kariyatu, and Neempan tablets three times a day. Two weeks after the subject started the taking the herbal composition of the invention, the subject's blood glucose levels had dropped to 5.5 mmol/L, within the normal range. As a result, the subject was able to proceed with the surgery.

[3] = Example I: blood glucose levels and side effects in a subject with type 2 diabetes; conditions: person, blood glucose 17 to 19 mmol/L at diagnosis, first prescribed drug

CN(C)C(=N)N=C(N)N [Metformin]
side effect (in words) [1]: left them feeling confused, “in a fog.”
blood glucose levels (effect in words) ([1]; fasting glucose 11.6 mmol/L and A1c 8.9% at diagnosis): did reduce their blood glucose levels
blood glucose levels [2]: about 19 mmol/L

CN(CCOc1ccc(CC2SC(=O)NC2=O)cc1)c1ccccn1 (stereo not shown) [Avandia, rosiglitazone]
blood glucose levels (effect in words) [3]: did not reduce their blood glucose levels to the normal range
